Reference: the NIST ThermoML archive (doi:10.1021/acs.jced.8b01004)
± gives the expanded uncertainty stated by the source.

Tests used:
[1] = xn = mol fraction of the nth substance listed; conditions: 100 kPa, Liquid; for viscosity: Falling or rolling sphere viscometry; for mass density: Vibrating tube method
[2] = 100 kPa, Liquid; for viscosity: Falling or rolling sphere viscometry; for mass density: Vibrating tube method

C1CC[C@H]2CCCC[C@H]2C1 [cis-decahydronaphthalene] + C1CC[C@H]2CCCC[C@@H]2C1
[1], x1 = 0.5
Conditions | mass density [kg/m3] | viscosity [mPa·s]
293.15 K | 880.41 ± 44 | 2.488 ± 0.054
298.15 K | 876.64 ± 44 | 2.255 ± 0.049
303.15 K | 872.86 ± 44 | 2.054 ± 0.044
308.15 K | 869.1 ± 43 | 1.88 ± 0.04
313.15 K | 865.33 ± 43 | 1.727 ± 0.037
318.15 K | 861.56 ± 43 | 1.592 ± 0.034
323.15 K | 857.8 ± 43 | 1.473 ± 0.032
328.15 K | 854.02 ± 43 | 1.367 ± 0.029
333.15 K | 850.25 ± 43 | 1.272 ± 0.027
338.15 K | 846.47 ± 42 | 1.188 ± 0.026
343.15 K | 842.68 ± 42 | 1.111 ± 0.024

OC1CCCC1 [cyclopentanol]
[2]
Conditions | mass density [kg/m3] | viscosity [mPa·s]
293.15 K | 946.99 ± 1.5 | 11.88 ± 0.25
298.15 K | 943.05 ± 1.5 | 9.722 ± 0.21
303.15 K | 939.05 ± 1.5 | 8.068 ± 0.17
308.15 K | 935.01 ± 1.5 | 7.077 ± 0.15
313.15 K | 930.91 ± 1.5 | 6.04 ± 0.13
318.15 K | 926.75 ± 1.5 | 5.19 ± 0.11
323.15 K | 922.53 ± 1.5 | 4.441 ± 0.095
328.15 K | 918.24 ± 1.5 | 3.83 ± 0.082
333.15 K | 913.89 ± 1.5 | 3.312 ± 0.07
338.15 K | 909.48 ± 1.5 | 2.886 ± 0.061
343.15 K | 904.99 ± 1.4 | 2.53 ± 0.054

CC1CCCCC1 [methylcyclohexane]
[2]
Conditions | mass density [kg/m3] | viscosity [mPa·s]
293.15 K | 769.35 ± 1.2 | 0.735 ± 0.016
298.15 K | 765 ± 1.2 | 0.689 ± 0.015
303.15 K | 760.65 ± 1.2 | 0.647 ± 0.014
308.15 K | 756.3 ± 1.2 | 0.611 ± 0.013
313.15 K | 751.93 ± 1.2 | 0.577 ± 0.012
318.15 K | 747.56 ± 1.2 | 0.547 ± 0.012
323.15 K | 743.16 ± 1.2 | 0.519 ± 0.011
328.15 K | 738.74 ± 1.2 | 0.495 ± 0.011
333.15 K | 734.29 ± 1.2 | 0.473 ± 0.01
338.15 K | 729.82 ± 1.2 | 0.453 ± 0.01
343.15 K | 725.32 ± 1.2 | 0.434 ± 0.009

CC1CCCCC1 [methylcyclohexane] + OC1CCCC1
[1], x1 = 1
Conditions | mass density [kg/m3] | viscosity [mPa·s]
293.15 K | 769.35 ± 1.2 | 0.735 ± 0.016
298.15 K | 765 ± 1.2 | 0.689 ± 0.015
303.15 K | 760.65 ± 1.2 | 0.647 ± 0.014
308.15 K | 756.3 ± 1.2 | 0.611 ± 0.013
313.15 K | 751.93 ± 1.2 | 0.577 ± 0.012
318.15 K | 747.56 ± 1.2 | 0.547 ± 0.012
323.15 K | 743.16 ± 1.2 | 0.519 ± 0.011
328.15 K | 738.74 ± 1.2 | 0.495 ± 0.011
333.15 K | 734.29 ± 1.2 | 0.473 ± 0.01
338.15 K | 729.82 ± 1.2 | 0.453 ± 0.01
343.15 K | 725.32 ± 1.2 | 0.434 ± 0.009
